# Data as given in paper PMC10349806 (Nature Communications, 2023).
# Where “and” joins values, the source holds several entries; their conditions need not be identical. Equal values may be shown once.
# Columns and labels:
# [1] = system: PfCRT variant H180A; assay: CQ uptake assay, oocytes expressing H180A; assay type: cell-based, Plasmodium falciparum
# Method: (§1) Site-directed mutagenesis of PfCRT^Dd2 was performed as described using the megaprimer method with overlap extension[21],[54]. The primer pairs used are listed in Supplementary Table 6. Please note that a codon-optimized and oocyte-adapted version of PfCRT^Dd2 was used[22] (Supplementary Fig. 16). The resulting DNA fragment was cloned into the SP64T expression vector and verified by sequencing.
# (§2) Oocytes were obtained as described previously. Briefly, adult (>2 years old) female X. laevis frogs (NASCO) were anesthetized in a cooled solution of ethyl 3-amino benzoate methanesulfonate (0.1%, w/v), followed by a surgical removal of parts of the ovary. The ovary lobes were carefully dissected and small pieces of oocytes were incubated in Ca^2+-free ND96 buffer (96 mM NaCl, 2 mM KCl, 1 mM MgCl2 buffered with 5 mM HEPES/NaOH, pH 7.5) supplemented with collagenase D (0.1%, w/v; Roche), BSA (0.5%, w/v), and 9 mm Na2HPO4 at 18 °C for 14-16 h while gentle shaking. After incubation, the oocytes were carefully washed several times with ND96 buffer (96 mM NaCl, 2 mM KCl, 1.8 mM CaCl2, 1 mM MgCl2 buffered with 5 mM HEPES/NaOH, pH 7.5) supplemented with 100 mg l^−1 gentamycin). Defolliculated and healthy-looking stage V-VI oocytes were manually selected for RNA microinjection. The RNA was generated as following: The codon-optimized sequences of PfCRT variants were cloned into the pSP64T expression vector. After vector linearization using the restriction endonucleases BamHI or SalI (New England Biolabs), transcription was performed using the in vitro SP6 mMessage mMachine Kit (Ambion)[34]. The obtained RNA was kept at −80 °C and diluted with nuclease-free water to a concentration of 0.6 μg μl^−1. Precision-bore glass capillary tubes (3.5-inch glass capillaries; Drummond Scientific Co.) were pulled on a vertical puller (P-87 Flaming/Brown micropipette puller, Sutter Instrument Co.), graduated, and placed on a microinjector (Nanoject II Auto-Nanoliter Injector, Drummond Scientific Co.). 50 nl of nuclease-free water alone (control oocytes) or 50 nl of 0.6 μg μl^−1 RNA were injected under stereomicroscopic control. Injected oocytes were incubated for 46–72 h at 18 °C with twice-daily buffer changes before usage in experiments.
# Drug uptake assays were performed as described previously[21],[22],[24],[34]. […] The direction of radio-labeled drug transport is here from the mostly acidic extracellular solution (pH 4.5 or 6.0, as indicated) into the oocyte cytosol (pH ∼ 7.2), which corresponds to the efflux of drug from the acidic digestive vacuole (pH 5.2) into the parasite cytoplasm (pH 7.2). The topology of PfCRT in the oolemma is such that both the N- and C-terminus face the extracellular milieu[3],[22]. In the parasite, the N- and C-terminus face the lumen of the digestive vacuole. CQ uptake kinetics were performed by incubating oocytes in ND96 buffer adjusted to a pH of 4.5, 5.0, 5.5, or 6.0 and supplemented with 50 nM [^3H]CQ and one of 7 different CQ concentrations (10 µM, 50 µM, 100 µM, 200 µM, 300 µM, 400 µM, 500 µM CQ). The reaction was stopped at the 60 min time point, which is in the linear uptake range[22],[34] (Supplementary Fig. 17). […] The radioactivity of each sample was measured using a liquid scintillation analyzer Tri-Carb 4910 TR (PerkinElmer). Oocytes that were injected with water instead of RNA were analyzed in parallel, representing the uptake of a drug by diffusion and/or endogenous permeation pathways. […]
# [2] = biological target: T1, PfCRT variant D377A (Plasmodium falciparum, UniProt Q9N623, A220S/D377A/I356T/K76T/M74I/N326S/N75E/Q271E/R371I); assay: CQ uptake assay, oocytes expressing D377A; assay type: cell-based
# T1 sequence (Q9N623 1-424 M74I/N75E/K76T/A220S/Q271E/N326S/I356T/R371I/D377A): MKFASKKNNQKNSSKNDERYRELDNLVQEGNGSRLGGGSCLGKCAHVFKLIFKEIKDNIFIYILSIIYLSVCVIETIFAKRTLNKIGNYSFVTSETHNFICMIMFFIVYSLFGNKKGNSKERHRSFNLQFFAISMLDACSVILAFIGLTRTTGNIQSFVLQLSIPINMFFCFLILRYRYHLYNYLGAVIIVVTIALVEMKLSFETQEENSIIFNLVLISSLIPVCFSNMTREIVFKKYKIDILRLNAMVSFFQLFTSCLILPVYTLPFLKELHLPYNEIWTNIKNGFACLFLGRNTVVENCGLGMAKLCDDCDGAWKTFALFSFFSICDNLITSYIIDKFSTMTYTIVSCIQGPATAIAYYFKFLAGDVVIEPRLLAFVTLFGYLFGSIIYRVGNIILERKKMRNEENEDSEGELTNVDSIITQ
# Method: as §1, §2
# (§3) Drug uptake assays were performed as described previously[21],[22],[24],[34]. […] The direction of radio-labeled drug transport is here from the mostly acidic extracellular solution (pH 4.5 or 6.0, as indicated) into the oocyte cytosol (pH ∼ 7.2), which corresponds to the efflux of drug from the acidic digestive vacuole (pH 5.2) into the parasite cytoplasm (pH 7.2). The topology of PfCRT in the oolemma is such that both the N- and C-terminus face the extracellular milieu[3],[22]. In the parasite, the N- and C-terminus face the lumen of the digestive vacuole. CQ uptake kinetics were performed by incubating oocytes in ND96 buffer adjusted to a pH of 4.5, 5.0, 5.5, or 6.0 and supplemented with 50 nM [^3H]CQ and one of 7 different CQ concentrations (10 µM, 50 µM, 100 µM, 200 µM, 300 µM, 400 µM, 500 µM CQ). The reaction was stopped at the 60 min time point, which is in the linear uptake range[22],[34] (Supplementary Fig. 17). For determination of the amount of drug uptake for each oocyte, the reaction medium was removed and the oocytes were washed three times with 2 ml of ice-cold ND96 buffer. Each oocyte was individually transferred to a scintillation vial containing 5% sodium dodecyl sulfate (200 μl) for lysis. The radioactivity of each sample was measured using a liquid scintillation analyzer Tri-Carb 4910 TR (PerkinElmer). Oocytes that were injected with water instead of RNA were analyzed in parallel, representing the uptake of a drug by diffusion and/or endogenous permeation pathways. The resulting value represents the “background“ level of drug accumulation in oocytes (in-depth discussion in[22]). […]
# [3] = system: PfCRT variant E207S; assay: CQ uptake assay, oocytes expressing E207S; assay type: cell-based, Plasmodium falciparum
# Method: as §1, §2, §3
# [4] = H180A, 50 µM CQ, 1 h, mean ± SEM
# [5] = pH 4.5, single replicates, Fig 1d left
# [6] = pH 6.0, single replicates, Fig 1d left
# [7] = D377A, 50 µM CQ, 1 h, mean ± SEM
# [8] = E207S, 50 µM CQ, 1 h, mean ± SEM
smiles,measurement,setting,value
"CCN(CC)CCCC(C)Nc1ccnc2cc(Cl)ccc12 (centres unmarked) [CQ, chloroquine]",Activity at pH 4.5,[1]; [4],1.14 ± 0.27 pmol h-1 oocyte-1
same,Activity at pH 6.0,[1]; [4],3.12 ± 0.12 pmol h-1 oocyte-1
same,R-value,"[1]; H180A, CQ transport at pH 4.5 / pH 6.0",0.36 ± 0.09
same,H180A transport activity pH 4.5,[1]; [5],0.55 pmol oocyte-1 h-1 and 1.69 pmol oocyte-1 h-1 and 1.17 pmol oocyte-1 h-1
same,H180A transport activity pH 6.0,[1]; [6],2.90 pmol oocyte-1 h-1 and 3.04 pmol oocyte-1 h-1 and 3.41 pmol oocyte-1 h-1
same,Activity at pH 4.5,[2]; [7],0.62 ± 0.01 pmol h-1 oocyte-1
same,Activity at pH 6.0,[2]; [7],1.44 ± 0.13 pmol h-1 oocyte-1
same,R-value,"[2]; D377A, CQ transport at pH 4.5 / pH 6.0",0.44 ± 0.04
same,D377A transport activity pH 4.5,[2]; [5],0.64 pmol oocyte-1 h-1 and 0.61 pmol oocyte-1 h-1
same,D377A R-value,"[2]; pH 4.5 vs pH 6.0, Fig 1d left",0.44 and 0.36 and 0.52
same,D377A transport activity pH 6.0,[2]; [6],1.44 pmol oocyte-1 h-1 and 1.71 pmol oocyte-1 h-1 and 1.17 pmol oocyte-1 h-1
same,Activity at pH 4.5,[3]; [8],2.94 ± 0.21 pmol h-1 oocyte-1
same,Activity at pH 6.0,[3]; [8],3.07 ± 0.23 pmol h-1 oocyte-1
same,R-value,"[3]; E207S, CQ transport at pH 4.5 / pH 6.0",0.96 ± 0.01
same,E207S transport activity pH 4.5,"[3]; pH 4.5, individual replicates, Fig 6b",3.45 pmol oocyte-1 h-1 and 2.79 pmol oocyte-1 h-1 and 2.59 pmol oocyte-1 h-1
same,E207S transport activity pH 6.0,"[3]; pH 6.0, individual replicates, Fig 6b",3.59 pmol oocyte-1 h-1 and 2.98 pmol oocyte-1 h-1 and 2.63 pmol oocyte-1 h-1
same,E207S R-value,[3]; ratio of activity pH 4.5 / pH 6.0,0.96 and 0.94 and 0.98
